Read-outs that look alike come from different tables or passages of the source.
Legend:
[1] = Pharmacokinetics and bioavailability in male mice after a single dose; type: in vivo; conditions: for AUC(0-t) / Cmax / Tmax / bioavailability / clearance / half-life: mouse, plasma; for half-life: read-out: Terminal t1/2 (converted)
[2] = Plasma and brain concentrations at 0.5 and 1 h in mice; type: in vivo; conditions: for concentration at 0.5 h / concentration at 1 h: male, mouse
[3] = target: ALK6 (BMPR1B) (Homo sapiens (Human), UniProt O00238); assay: In vitro kinase assay, ALK6; type: biochemical; conditions: 10 μM ATP; read-out: Inhibition of ALK6 IC50
ALK6 (BMPR1B), sequence (O00238 14-502): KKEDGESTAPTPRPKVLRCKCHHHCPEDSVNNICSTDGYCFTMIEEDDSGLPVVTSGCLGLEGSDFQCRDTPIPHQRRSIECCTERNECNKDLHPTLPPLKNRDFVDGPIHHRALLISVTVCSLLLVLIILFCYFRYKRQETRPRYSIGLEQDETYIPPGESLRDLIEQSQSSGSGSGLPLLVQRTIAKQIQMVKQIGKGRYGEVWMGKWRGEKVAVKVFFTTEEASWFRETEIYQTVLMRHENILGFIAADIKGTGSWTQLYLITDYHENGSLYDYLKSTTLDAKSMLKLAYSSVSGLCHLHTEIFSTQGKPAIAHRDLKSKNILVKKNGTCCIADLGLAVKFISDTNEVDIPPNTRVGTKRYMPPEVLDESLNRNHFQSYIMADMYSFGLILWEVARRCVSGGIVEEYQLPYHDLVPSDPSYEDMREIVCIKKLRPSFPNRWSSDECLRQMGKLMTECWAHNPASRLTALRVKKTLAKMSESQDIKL

[4] = target: ALK3 (BMPR1A) (Homo sapiens (Human), UniProt P36894); assay: In vitro kinase assay, ALK3; type: biochemical; conditions: read-out: Inhibition of ALK3 IC50
ALK3 (BMPR1A), sequence (P36894 24-532): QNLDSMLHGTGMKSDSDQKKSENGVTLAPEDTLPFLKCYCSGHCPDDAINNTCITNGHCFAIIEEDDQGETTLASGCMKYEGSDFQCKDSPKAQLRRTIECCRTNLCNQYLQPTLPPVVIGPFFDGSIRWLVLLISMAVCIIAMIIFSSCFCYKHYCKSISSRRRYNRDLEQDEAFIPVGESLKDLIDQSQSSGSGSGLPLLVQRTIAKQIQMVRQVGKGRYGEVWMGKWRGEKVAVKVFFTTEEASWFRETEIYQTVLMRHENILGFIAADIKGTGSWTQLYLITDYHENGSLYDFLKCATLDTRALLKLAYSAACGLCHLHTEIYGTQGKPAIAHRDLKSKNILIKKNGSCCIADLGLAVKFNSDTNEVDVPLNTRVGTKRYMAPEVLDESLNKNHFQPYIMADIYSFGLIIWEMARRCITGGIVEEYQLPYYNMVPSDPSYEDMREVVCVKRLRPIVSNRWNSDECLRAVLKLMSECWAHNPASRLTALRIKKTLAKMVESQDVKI

[5] = target: ALK2 (ACVR1) (Homo sapiens (Human), UniProt Q04771); assay: In vitro kinase assay, ALK2; type: biochemical; conditions: read-out: Inhibition of ALK2 IC50
ALK2 (ACVR1), sequence (Q04771 21-509): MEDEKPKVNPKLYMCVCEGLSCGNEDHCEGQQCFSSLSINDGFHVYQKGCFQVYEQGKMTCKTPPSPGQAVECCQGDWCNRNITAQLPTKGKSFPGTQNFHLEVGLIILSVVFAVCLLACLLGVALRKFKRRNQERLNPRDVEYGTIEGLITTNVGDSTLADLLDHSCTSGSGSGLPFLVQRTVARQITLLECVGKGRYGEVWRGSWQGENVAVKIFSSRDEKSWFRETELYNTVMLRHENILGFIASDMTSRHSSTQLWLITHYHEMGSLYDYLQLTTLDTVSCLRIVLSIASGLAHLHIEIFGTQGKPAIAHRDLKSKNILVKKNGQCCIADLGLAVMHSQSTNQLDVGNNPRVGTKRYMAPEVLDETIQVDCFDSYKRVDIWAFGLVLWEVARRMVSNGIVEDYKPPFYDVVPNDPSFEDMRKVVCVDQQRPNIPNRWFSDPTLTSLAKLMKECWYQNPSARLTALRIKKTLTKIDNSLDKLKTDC

[6] = target: ALK1 (ACVRL1) (Homo sapiens (Human), UniProt P37023); assay: In vitro kinase assay, ALK1; type: biochemical; conditions: 10 μM ATP; read-out: Inhibition of ALK1 IC50
ALK1 (ACVRL1), sequence (P37023 22-503): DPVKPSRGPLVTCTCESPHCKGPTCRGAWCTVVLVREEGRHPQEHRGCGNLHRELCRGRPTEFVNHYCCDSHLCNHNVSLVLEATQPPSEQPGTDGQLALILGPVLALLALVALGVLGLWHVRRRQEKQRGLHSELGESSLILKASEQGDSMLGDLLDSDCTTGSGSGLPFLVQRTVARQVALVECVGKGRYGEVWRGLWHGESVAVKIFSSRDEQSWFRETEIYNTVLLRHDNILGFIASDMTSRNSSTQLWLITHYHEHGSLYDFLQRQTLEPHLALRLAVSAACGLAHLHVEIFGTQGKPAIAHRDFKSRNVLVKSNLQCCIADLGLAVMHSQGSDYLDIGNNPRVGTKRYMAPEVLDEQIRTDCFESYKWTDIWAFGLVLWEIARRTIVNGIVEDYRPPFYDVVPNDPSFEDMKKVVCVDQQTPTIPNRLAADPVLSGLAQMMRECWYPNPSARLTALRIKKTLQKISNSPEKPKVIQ

[7] = brain, IV (2 mg/kg), 0.5 h, read-out: Brain concentration
[8] = brain, IV (2 mg/kg), 1 h, read-out: Brain concentration
[9] = brain, PO (10 mg/kg), 0.5 h, read-out: Brain concentration
[10] = brain, PO (10 mg/kg), 1 h, read-out: Brain concentration
[11] = plasma, IV (2 mg/kg), 0.5 h, read-out: Plasma concentration
[12] = plasma, IV (2 mg/kg), 1 h, read-out: Plasma concentration
[13] = plasma, PO (10 mg/kg), 0.5 h, read-out: Plasma concentration
[14] = plasma, PO (10 mg/kg), 1 h, read-out: Plasma concentration
[15] = brain, 2 mg/kg, IV, 0.5 h, read-out: Brain Concentration
[16] = brain, 2 mg/kg, IV, 1 h, read-out: Brain Concentration
[17] = brain, 10 mg/kg, PO, 0.5 h, read-out: Brain Concentration
[18] = brain, 10 mg/kg, PO, 1 h, read-out: Brain Concentration
[19] = plasma, 2 mg/kg, IV, 0.5 h, read-out: Plasma Concentration
[20] = plasma, 2 mg/kg, IV, 1 h, read-out: Plasma Concentration
[21] = plasma, 10 mg/kg, PO, 0.5 h, read-out: Plasma Concentration
[22] = plasma, 10 mg/kg, PO, 1 h, read-out: Plasma Concentration

| V ([1]; intravenous, 2 mg/kg) [L/kg] | AUC(0-t) ([1]; intravenous, 2 mg/kg) [µM·h] | Cmax ([1]; intravenous, 2 mg/kg) [nM] | AUC(0-t) ([1]; oral, 10 mg/kg) [µM·h] | Cmax ([1]; oral, 10 mg/kg) [nM] | Tmax ([1]; oral, 10 mg/kg) [h] | bioavailability ([1]; oral, 10 mg/kg) [%] | clearance ([1]; intravenous, 2 mg/kg) [mL/min/kg] | half-life ([1]; intravenous, 2 mg/kg) [h] | SMILES | IC50 [3] [µM] | half-life ([1]; oral, 10 mg/kg) [h] | IC50 ([4]; 10 μM ATP) [µM] | IC50 ([5]; 10 μM ATP) [µM] | other results |
| --- | --- | --- | --- | --- | --- | --- | --- | --- | --- | --- | --- | --- | --- | --- |
| 4.14 | 1.19 | 544 | 5.25 | 1570 | 0.5 | 88 | – | – | CC(C)c1cnc(-c2cc(Cl)ccc2F)cc1Nc1ccncc1C(=O)NC[C@H](C)O (single isomer, unassigned) [2a] | – | – | – | – | concentration at 0.5 h [2, 7]: 73.2 ng/mL; concentration at 1 h [2, 8]: 82.4 ng/mL; concentration at 0.5 h [2, 9]: 202 ng/mL; concentration at 1 h [2, 10]: 114 ng/mL; concentration at 0.5 h [2, 11]: 310 ng/mL; concentration at 1 h [2, 12]: 366 ng/mL; concentration at 0.5 h [2, 13]: 1570 ng/mL; concentration at 1 h [2, 14]: 905 ng/mL |
| – | 3.15 | 3610 | 9.79 | 3480 | 0.25 | 62.2 | 24.7 | 1.02 | CCc1cnc(-c2cc(Cl)ccc2F)cc1Nc1ccncc1C(=O)NC[C@H](C)O (single isomer, unassigned) [11a] | – | 1.65 | – | – | – |
| 2.80 | 3.69 | 2150 | 14.5 | 4280 | 0.5 | 78.3 | 19.8 | 1.63 | CC(C)c1cnc(-c2cc(Cl)ccc2F)cc1Nc1ncncc1C(=O)NC[C@H](C)O (single isomer, unassigned) [12a] | – | 1.72 | – | – | – |
| 0.967 | 4.41 | 3400 | 7.5 | 3420 | 0.5 | 34.1 | 17 | 0.655 | C[C@H](O)CNC(=O)c1cnccc1Nc1cc(-c2cc(Cl)ccc2F)ncc1N(C)C (single isomer, unassigned) [16a] | > 1000 | 2.36 | – | – | concentration at 0.5 h [2, 15]: 48 nM; concentration at 1 h [2, 16]: 19 nM; concentration at 0.5 h [2, 17]: 48 nM; concentration at 1 h [2, 18]: 25 nM; concentration at 0.5 h [2, 19]: 3040 nM; concentration at 1 h [2, 20]: 1230 nM; concentration at 0.5 h [2, 21]: 3420 nM; concentration at 1 h [2, 22]: 1690 nM |
| 3.86 | 1.57 | 3010 | 2.54 | 1880 | 0.5 | 32.5 | – | – | CC(=O)NCCNC(=O)c1cnccc1Nc1cc(-c2cc(Cl)ccc2F)ncc1C(C)C [compound 14, N-(2-acetamidoethyl)-4-[[2-(5-chloro-2-fluoro-phenyl)-5-isopropyl-4-pyridyl]amino]pyridine-3-carboxamide] | – | – | – | – | – |
| 21.1 | 1.19 | 520 | 0.927 | 198 | 1 | 15.5 | – | – | CC(C)c1cnc(-c2cc(Cl)ccc2F)cc1Nc1ccncc1C(=O)NCCN [compound 19, N-(2-aminoethyl)-4-[[2-(5-chloro-2-fluoro-phenyl)-5-isopropyl-4-pyridyl]amino]pyridine-3-carboxamide] | – | – | – | – | Brain Concentration ([2]; PO, 0.5 h): BLQ; Brain Concentration ([2]; PO, 1 h): BLQ; concentration at 0.5 h [2, 15]: 4 nM; concentration at 1 h [2, 16]: 3 nM; concentration at 0.5 h [2, 19]: 280 nM; concentration at 1 h [2, 20]: 183 nM; concentration at 0.5 h [2, 21]: 164 nM; concentration at 1 h [2, 22]: 198 nM |
| 2.43 | 3.77 | 2460 | 16.2 | 7070 | 0.5 | 86.6 | – | 1.53 | CC(C)c1cnc(-c2cc(Cl)ccc2F)cc1Nc1ccncc1C(=O)NC(CO)CO [compound 22, 4-[[2-(5-chloro-2-fluoro-phenyl)-5-isopropyl-4-pyridyl]amino]-N-[2-hydroxy-1-(hydroxymethyl)ethyl]pyridine-3-carboxamide] | – | – | – | – | concentration at 0.5 h [2, 15]: 7 nM; concentration at 1 h [2, 16]: 5 nM; concentration at 0.5 h [2, 17]: 20 nM; concentration at 1 h [2, 18]: 15 nM; concentration at 0.5 h [2, 19]: 1690 nM; concentration at 1 h [2, 20]: 967 nM; concentration at 0.5 h [2, 21]: 7070 nM; concentration at 1 h [2, 22]: 3530 nM |

The remaining lines, values behind:

| SMILES | V ([1]; intravenous, 2 mg/kg) [L/kg] | AUC(0-t) ([1]; intravenous, 2 mg/kg) [µM·h] | Cmax ([1]; intravenous, 2 mg/kg) [nM] | AUC(0-t) ([1]; oral, 10 mg/kg) [µM·h] | Cmax ([1]; oral, 10 mg/kg) [nM] | Tmax ([1]; oral, 10 mg/kg) [h] | bioavailability ([1]; oral, 10 mg/kg) [%] | clearance ([1]; intravenous, 2 mg/kg) [mL/min/kg] | half-life ([1]; intravenous, 2 mg/kg) [h] | IC50 [3] [µM] | half-life ([1]; oral, 10 mg/kg) [h] | IC50 ([4]; 10 μM ATP) [µM] | IC50 ([5]; 10 μM ATP) [µM] | other results |
| --- | --- | --- | --- | --- | --- | --- | --- | --- | --- | --- | --- | --- | --- | --- |
| C=C(C)c1cnc(-c2cc(Cl)ccc2F)cc1Nc1ccncc1C(=O)NC[C@H](C)O (single isomer, unassigned) [3a] | 1.29 | 2.56 | 602 | 10.5 | 1650 | 0.25 | 82 | 12.8 | 3.86 | > 100 | 3.85 | – | – | concentration at 0.5 h [2, 7]: 173 ng/mL; concentration at 1 h [2, 8]: 168 ng/mL; concentration at 0.5 h [2, 9]: 305 ng/mL; concentration at 1 h [2, 10]: 406 ng/mL; concentration at 0.5 h [2, 11]: 432 ng/mL; concentration at 1 h [2, 12]: 365 ng/mL; concentration at 0.5 h [2, 13]: 1280 ng/mL; concentration at 1 h [2, 14]: 1250 ng/mL |
| COc1cnc(-c2cc(Cl)ccc2F)cc1Nc1ccncc1C(=O)NC[C@H](C)O (single isomer, unassigned) [13a] | 3.72 | 1.56 | 1420 | 5.64 | 1600 | 0.25 | 72.3 | 20.7 | 2.09 | – | 2.85 | – | – | IC50 [4]: > 100 µM |
| C=C(C)c1c(Nc2ccncc2C(=O)NC[C@H](C)O)cc(-c2cc(Cl)ccc2F)nc1N (single isomer, unassigned) [23a] | – | 1.11 | 2560 | 0.907 | 612 | 0.25 | 16.4 | 66 | – | > 100 | – | > 100 | > 100 | – |
| C=C(C)c1cnc(-c2cc(Cl)ccc2F)cc1Nc1ncncc1C(=O)NC[C@H](C)O [4a, (S)-4-(2-(5-chloro-2-fluorophenyl)-5-(prop-1-en-2-yl)pyridin-4-ylamino)-N-(2-hydroxypropyl)pyrimidine-5-carboxamide] | – | – | – | – | – | – | – | – | – | – | – | – | 10.6 | – |
| C=C(C)c1cnc(-c2cc(Cl)ccc2F)cc1Nc1ccncc1C(=O)N[C@@H](C)CO [7a, (S)-4-(2-(5-chloro-2-fluorophenyl)-5-(prop-1-en-2-yl)pyridin-4-ylamino)-N-(1-hydroxypropan-2-yl)nicotinamide] | – | – | – | – | – | – | – | – | – | – | – | > 100 | 10.9 | – |
| C=C(C)c1cnc(-c2cc(Cl)ccc2F)cc1Nc1ccncc1C(=O)NCCO [compound 26, 4-[[2-(5-chloro-2-fluoro-phenyl)-5-isopropenyl-4-pyridyl]amino]-N-(2-hydroxyethyl)pyridine-3-carboxamide] | 6.21 | 1.76 | 3000 | 2.36 | 1290 | 0.5 | 26.9 | 44.3 | 1.62 | > 100 | 1.66 | > 100 | > 100 | – |
| CC(C)c1cnc(-c2ncccc2F)cc1Nc1ccnc2[nH]ccc12 [compound 29, 2-(3-fluoropyridin-2-yl)-5-(propan-2-yl)-N-{1H-pyrrolo[2,3-b]pyridin-4-yl}pyridin-4-amine] | – | – | – | – | – | – | – | – | – | 15.3 | – | – | – | IC50 [5]: 60.6 µM |
| CC(C)c1cnc(-c2ncccc2F)cc1Nc1ncnc2[nH]ccc12 [compound 30, 2-(3-fluoropyridin-2-yl)-5-(propan-2-yl)-N-{7H-pyrrolo[2,3-d]pyrimidin-4-yl}pyridin-4-amine] | – | – | – | – | – | – | – | – | – | 13.5 | – | > 10 | 73 | – |
| Fc1ccc(Cl)cc1-c1cc(Nc2ccnc3[nH]ccc23)c(C2CC2)cn1 [compound 32, 2-(5-chloro-2-fluorophenyl)-5-cyclopropyl-N-{1H-pyrrolo[2,3-b]pyridin-4-yl}pyridin-4-amine] | – | – | – | – | – | – | – | – | – | – | – | 3.33 | – | IC50 [5]: 5.84 µM |
| C=C(C)c1cnc(-c2cc(Cl)ccc2F)cc1Nc1ccncc1C(=O)N1CCCC1 [compound 34, 2-(5-chloro-2-fluorophenyl)-5-(prop-1-en-2-yl)-N-[3-(pyrrolidine-1-carbonyl)pyridin-4-yl]pyridin-4-amine] | – | – | – | – | – | – | – | – | – | – | – | > 10 | > 10 | IC50 [6]: > 10 µM |
| CC(C)c1cnc(-c2cc(Cl)ccc2F)cc1Nc1ncnc2[nH]ccc12 [compound 35, 2-(5-chloro-2-fluorophenyl)-5-(propan-2-yl)-N-{7H-pyrrolo[2,3-d]pyrimidin-4-yl}pyridin-4-amine] | – | – | – | – | – | – | – | – | – | – | – | – | – | IC50 [5]: 5.45 µM |
| CC(C)c1cnc(-c2cc(Cl)ccc2F)cc1Nc1ncnc2[nH]ncc12 [compound 36, 2-(5-chloro-2-fluorophenyl)-5-(propan-2-yl)-N-{1H-pyrazolo[3,4-d]pyrimidin-4-yl}pyridin-4-amine] | – | – | – | – | – | – | – | – | – | – | – | – | – | IC50 [4]: > 10 µM; IC50 [5]: 8.93 µM |

From patent publication US10030004B2, “Compounds and methods of use” (Medivation Technologies LLC, priority 2014, dated 2018)
